Laboratory results as given in patent US20250032450A1, “[…] INHALABLE FORMULATIONS” (Cybin UK Ltd., priority 2021, published 2025).
In brackets after ≈: the same amount, converted by molar mass. Read-outs that look alike come from different tables or passages of the source.

Assays:
[1] = in water; estimated; cited from earlier work
[2] = N,N-Dimethyltryptamine pH-solubility in 0.5M Britton Robinson buffer; format: physicochemical; conditions: aqueous buffer, thermodynamic from solid, read-out: solubility, Real data
Description: Prior to adding N,N-dimethyltryptamine, a quantity of NaOH was added to the BR buffer as required to ensure the required pH. The total volume of BR buffer plus required amount of NaOH was 5 ml for each pH tested (pH 4, 5, 6, 7, 8, 9 & 10).

[3] = HMDB; cited from earlier work

Structure (SMILES)	pKa of terminal phosphate oxygen atom (first value) [1]	pKa of terminal phosphate oxygen atom (second value) [1]	solubility ([2]; pH 4.05, 25° C.) [mg/mL]	solubility ([2]; pH 4.98, 25° C.) [mg/mL]	solubility ([2]; pH 6.05, 25° C.) [mg/mL]	solubility ([2]; pH 7.08, 25° C.) [mg/mL]	solubility ([2]; pH 8.07, 25° C.) [mg/mL]	solubility ([2]; pH 8.91, 25° C.) [mg/mL]	solubility ([2]; pH 10.01, 25° C.) [mg/mL]	degradation in solution [3]
CN(C)CCc1c[nH]c2cccc(OP(=O)(O)O)c12 [psilocybin, [3-(2-Dimethylaminoethyl)-1H-indol-4-yl] dihydrogen phosphate]	1.3	6.5	–	–	–	–	–	–	–	–
CN(C)CCc1c[nH]c2ccccc12 [N,N-Dimethyltryptamine]	–	–	105 (≈ 556 mM)	126 (≈ 671 mM)	92.6 (≈ 492 mM)	68.6 (≈ 364 mM)	88.4 (≈ 470 mM)	17.1 (≈ 90.8 mM)	1.14 (≈ 6.06 mM)	degrades relatively quickly in solution
